In series [1] the target is T1, ATP-dependent translocase ABCB1 (Rattus norvegicus, UniProt P43245). The series can be described thus: TP_TRANSPORTER: Western blot, primary hepatocytes. Type of series: functional, cell-based, Hepatocyte.
Series [2] has as its target T1, ATP-dependent translocase ABCB1. The series can be described thus: TP_TRANSPORTER: Northern blot from primary hepatocytes. Type of series: functional, cell-based, Hepatocyte.

Each structure is given as a SMILES string.

T1 sequence (P43245 whole entry): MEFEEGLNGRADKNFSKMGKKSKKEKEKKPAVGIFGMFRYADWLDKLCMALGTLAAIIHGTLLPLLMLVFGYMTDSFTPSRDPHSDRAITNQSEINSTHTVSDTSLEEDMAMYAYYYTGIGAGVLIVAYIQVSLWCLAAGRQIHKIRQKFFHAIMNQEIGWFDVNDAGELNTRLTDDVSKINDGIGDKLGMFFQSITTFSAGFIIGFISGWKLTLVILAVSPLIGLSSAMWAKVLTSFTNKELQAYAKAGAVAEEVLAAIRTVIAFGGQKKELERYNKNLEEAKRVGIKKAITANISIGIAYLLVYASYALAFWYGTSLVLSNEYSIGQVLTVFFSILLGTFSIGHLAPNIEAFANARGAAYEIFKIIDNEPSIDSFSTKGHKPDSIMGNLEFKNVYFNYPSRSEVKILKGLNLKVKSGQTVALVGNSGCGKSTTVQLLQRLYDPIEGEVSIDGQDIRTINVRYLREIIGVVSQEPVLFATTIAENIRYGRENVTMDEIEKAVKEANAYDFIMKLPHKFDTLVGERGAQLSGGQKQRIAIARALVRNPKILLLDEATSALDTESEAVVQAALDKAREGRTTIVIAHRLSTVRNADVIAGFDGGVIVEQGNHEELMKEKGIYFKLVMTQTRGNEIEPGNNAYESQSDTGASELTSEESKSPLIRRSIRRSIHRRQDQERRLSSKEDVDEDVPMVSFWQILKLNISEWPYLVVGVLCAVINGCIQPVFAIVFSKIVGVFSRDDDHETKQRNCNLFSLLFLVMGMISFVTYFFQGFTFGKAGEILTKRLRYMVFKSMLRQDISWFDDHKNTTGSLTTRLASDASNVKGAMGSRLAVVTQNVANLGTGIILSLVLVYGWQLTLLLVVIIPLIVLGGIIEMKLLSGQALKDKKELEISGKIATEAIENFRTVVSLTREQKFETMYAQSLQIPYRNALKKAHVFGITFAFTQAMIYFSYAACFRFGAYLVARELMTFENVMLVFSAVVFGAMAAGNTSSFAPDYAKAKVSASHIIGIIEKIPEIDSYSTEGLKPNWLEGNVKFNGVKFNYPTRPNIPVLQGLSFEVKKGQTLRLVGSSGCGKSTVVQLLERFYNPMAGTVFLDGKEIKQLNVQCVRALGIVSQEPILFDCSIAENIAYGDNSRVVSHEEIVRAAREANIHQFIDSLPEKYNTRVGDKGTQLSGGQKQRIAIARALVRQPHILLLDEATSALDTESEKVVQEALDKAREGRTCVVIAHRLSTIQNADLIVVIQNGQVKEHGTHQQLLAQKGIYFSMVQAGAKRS

For the molecule `C[C@@H]1C[C@H]2[C@@H]3CCC4=CC(=O)C=C[C@]4(C)[C@@]3(F)[C@@H](O)C[C@]2(C)[C@@]1(O)C(=O)CO` [DEXAMETHASONE], the Activity entry in series [1] and in series [2] was “inducer [Decrease]” in each case.

Values taken from ChEMBL document CHEMBL2074099, “Divergent regulation of the class II P-glycoprotein gene in primary cultures of hepatocytes versus H35 hepatoma by glucocorticoids” (Cell Growth Differ, 1995).
